Reference: ChEMBL document CHEMBL3400015, “Tertiary amides of Salinomycin: A new group of antibacterial agents against Bacillus anthracis and methicillin-resistant Staphylococcus epidermidis” (Bioorg Med Chem Lett, 2015)
In brackets after ≈: the same amount, converted by molar mass.

Experiments:
Type in all cases: functional
[1] = tested on: Staphylococcus epidermidis; assay: Bactericidal activity against methicillin-resistant Staphylococcus epidermidis isolate 409/10 after 24 hrs; conditions: isolate 409/10, 24 h, read-out: MBC99.9
Pseudomonas aeruginosa = assay: Bactericidal activity against Pseudomonas aeruginosa NCTC 6749 after 24 hrs; conditions: NCTC 6749, 24 h, read-out: MBC99.9
[2] = tested on: Staphylococcus epidermidis; assay: Antimicrobial activity against methicillin-resistant Staphylococcus epidermidis isolate 461/11 after 18 hrs by twofold serial broth dilution method; conditions: isolate 461/11, 18 h
[3] = tested on: Staphylococcus epidermidis; assay: Bactericidal activity against methicillin-resistant Staphylococcus epidermidis isolate 405/10 after 24 hrs; conditions: isolate 405/10, 24 h, read-out: MBC99.9
Escherichia coli = assay: Antimicrobial activity against Escherichia coli ATCC 10538 after 18 hrs by twofold serial broth dilution method; conditions: ATCC 10538, 18 h
[4] = tested on: Staphylococcus epidermidis; assay: Antimicrobial activity against methicillin-resistant Staphylococcus epidermidis isolate 459/11 after 18 hrs by twofold serial broth dilution method; conditions: isolate 459/11, 18 h
[5] = tested on: Staphylococcus epidermidis; assay: Bactericidal activity against methicillin-resistant Staphylococcus epidermidis isolate 407/10 after 24 hrs; conditions: isolate 407/10, 24 h, read-out: MBC99.9
[6] = tested on: Staphylococcus epidermidis; assay: Bactericidal activity against methicillin-resistant Staphylococcus epidermidis isolate 455/11 after 24 hrs; conditions: isolate 455/11, 24 h, read-out: MBC99.9
[7] = tested on: Staphylococcus epidermidis; assay: Bactericidal activity against methicillin-resistant Staphylococcus epidermidis isolate 459/11 after 24 hrs; conditions: isolate 459/11, 24 h, read-out: MBC99.9
[8] = tested on: Staphylococcus epidermidis; assay: Bactericidal activity against methicillin-resistant Staphylococcus epidermidis isolate 424/10 after 24 hrs; conditions: isolate 424/10, 24 h, read-out: MBC99.9
[9] = tested on: Staphylococcus epidermidis; assay: Antimicrobial activity against methicillin-resistant Staphylococcus epidermidis isolate 405/10 after 18 hrs by twofold serial broth dilution method; conditions: isolate 405/10, 18 h
Staphylococcus aureus = assay: Bactericidal activity against Staphylococcus aureus ATCC 6538 after 24 hrs; conditions: ATCC 6538, 24 h, read-out: MBC99.9
[10] = tested on: Staphylococcus epidermidis; assay: Antimicrobial activity against methicillin-resistant Staphylococcus epidermidis isolate 460/11 after 18 hrs by twofold serial broth dilution method; conditions: isolate 460/11, 18 h
[11] = tested on: Staphylococcus epidermidis; assay: Antimicrobial activity against methicillin-resistant Staphylococcus epidermidis isolate 403/10 after 18 hrs by twofold serial broth dilution method; conditions: isolate 403/10, 18 h
[12] = tested on: Staphylococcus epidermidis; assay: Bactericidal activity against Staphylococcus epidermidis ATCC 12228 after 24 hrs; conditions: ATCC 12228, 24 h, read-out: MBC99.9
[13] = tested on: Staphylococcus epidermidis; assay: Ratio of ciprofloxacin MIC to compound MIC for methicillin-resistant Staphylococcus epidermidis clinical isolate after 18 hrs by twofold serial broth dilution method

Row | Structure (SMILES) | MBC [1] [µg/mL] | MBC (Pseudomonas aeruginosa) [µg/mL] | MIC [2] [µg/mL] | MBC [3] [µg/mL] | MIC (Escherichia coli) [µg/mL] | MIC [4] [µg/mL] | MBC [5] [µg/mL] | MBC [6] [µg/mL] | MBC [7] [µg/mL] | MBC [8] [µg/mL] | MIC [9] [µg/mL] | MBC (Staphylococcus aureus) [µg/mL] | MIC [10] [µg/mL] | MIC [11] [µg/mL] | MBC [12] [µg/mL] | Ratio [13]
1 | CC[C@@H](C(=O)[C@@H](C)[C@@H](O)[C@H](C)[C@@H]1O[C@@H]([C@@H](CC)C(=O)N(CCOC)CCOC)CC[C@@H]1C)[C@H]1O[C@]2(C=C[C@@H](O)[C@]3(CC[C@@](C)([C@H]4CC[C@](O)(CC)[C@H](C)O4)O3)O2)[C@H](C)C[C@@H]1C | > 256 | > 256 | 256 (≈ 296 µM) | > 256 | > 256 | 128 (≈ 148 µM) | > 256 | > 256 | > 256 | > 256 | 256 (≈ 296 µM) | > 256 | 128 (≈ 148 µM) | 64 (≈ 73.9 µM) | > 256 | 
2 | CCCCN(CCCC)C(=O)[C@H](CC)[C@H]1CC[C@H](C)[C@H]([C@@H](C)[C@H](O)[C@H](C)C(=O)[C@H](CC)[C@H]2O[C@]3(C=C[C@@H](O)[C@]4(CC[C@@](C)([C@H]5CC[C@](O)(CC)[C@H](C)O5)O4)O3)[C@H](C)C[C@@H]2C)O1 | > 256 | > 256 | 8 (≈ 9.28 µM) | 128 (≈ 148 µM) | > 256 | 4 (≈ 4.64 µM) | 256 (≈ 297 µM) | 256 (≈ 297 µM) | 256 (≈ 297 µM) | 256 (≈ 297 µM) | 4 (≈ 4.64 µM) | 256 (≈ 297 µM) | 8 (≈ 9.28 µM) | 8 (≈ 9.28 µM) | > 256 | 
3 | CCCN(CCC)C(=O)[C@H](CC)[C@H]1CC[C@H](C)[C@H]([C@@H](C)[C@H](O)[C@H](C)C(=O)[C@H](CC)[C@H]2O[C@]3(C=C[C@@H](O)[C@]4(CC[C@@](C)([C@H]5CC[C@](O)(CC)[C@H](C)O5)O4)O3)[C@H](C)C[C@@H]2C)O1 | 128 (≈ 153 µM) | > 256 | 4 (≈ 4.8 µM) | 128 (≈ 153 µM) | > 256 | 4 (≈ 4.8 µM) | 256 (≈ 307 µM) | 256 (≈ 307 µM) | 128 (≈ 153 µM) | 256 (≈ 307 µM) | 8 (≈ 9.59 µM) | 256 (≈ 307 µM) | 8 (≈ 9.59 µM) | 4 (≈ 4.8 µM) | 256 (≈ 307 µM) | 40
4 | CC[C@@H](C(=O)[C@@H](C)[C@@H](O)[C@H](C)[C@@H]1O[C@@H]([C@@H](CC)C(=O)N(CCO)CCO)CC[C@@H]1C)[C@H]1O[C@]2(C=C[C@@H](O)[C@]3(CC[C@@](C)([C@H]4CC[C@](O)(CC)[C@H](C)O4)O3)O2)[C@H](C)C[C@@H]1C | 256 (≈ 305 µM) | > 256 | 4 (≈ 4.77 µM) | 128 (≈ 153 µM) | > 256 | 4 (≈ 4.77 µM) | 128 (≈ 153 µM) | 256 (≈ 305 µM) | 256 (≈ 305 µM) | 128 (≈ 153 µM) | 2 (≈ 2.39 µM) | 256 (≈ 305 µM) | 4 (≈ 4.77 µM) | 4 (≈ 4.77 µM) | 256 (≈ 305 µM) | 40
5 | CCCCCCCCN(CCCCCCCC)C(=O)[C@H](CC)[C@H]1CC[C@H](C)[C@H]([C@@H](C)[C@H](O)[C@H](C)C(=O)[C@H](CC)[C@H]2O[C@]3(C=C[C@@H](O)[C@]4(CC[C@@](C)([C@H]5CC[C@](O)(CC)[C@H](C)O5)O4)O3)[C@H](C)C[C@@H]2C)O1 | > 256 | > 256 | > 256 | > 256 | > 256 | 256 (≈ 263 µM) | > 256 | > 256 | > 256 | > 256 | > 256 | > 256 | 256 (≈ 263 µM) | 256 (≈ 263 µM) | > 256 | 
